{
  "source": "patent US20120165403A1",
  "about": "“METHODS OF INHIBITING THE ACTIVITY OF HSP90 AND/OR ARYL HYDROCARBON RECEPTOR” (UNIVERSITY OF ROCHESTER, priority 2004, published 2012)",
  "system": "hsp90",
  "test": "Sucrose density gradient sedimentation of hsp90 in Hepa cytosol",
  "type": "biochemical, mouse",
  "details": "2 h, 200 μM EGCG or 10 nM TCDD",
  "description": "Competitive binding of EGCG was analyzed by velocity sedimentation on sucrose gradients in a vertical tube rotor (Tsui et al., Can. J. Physiol. Pharmacol 59:927-931 (1981); Jensen et al., Toxicol. Sci. 64:41-56 (2001), which are hereby incorporated by reference in their entirety). Hepa cytosol (100 μl of 2.5 mg/ml) or BP^rCl cytosol was incubated for two hours at room temperature with either 3 nM ^3H-TCDD, 0.5 nM ^3H-TCDD, or 5 nM ^3H-BNF, in the presence of DMSO, 150-fold excess TCDF, 1 μM 3M4NF, or EGCG. […] For competitive binding assays, fractions were assayed for radioactivity with ScintiVerse (Fisher Scientific, Fair Lawn, N.J.). […] For AhR and hsp90 density analysis, protein contained within an aliquot (200 of each fraction was separated by SDS-PAGE (7.5% acrylamide resolving gel) and transferred to PVDF membranes. Membranes were probed with antibodies recognizing AhR (Biomol) or hsp90 (Stressgen, Victoria, BC Canada). A crude estimate of the sedimentation coefficient for the EGCG shifted AhR complex was calculated by the method of Martin and Ames (Martin et al., J. Biol. Chem. 236:1372-1379 (1961), which is hereby incorporated by reference in its entirety) relative to the ^14C-BSA (4.4S) standard.",
  "data": [
    {"molecule": "O=C(O[C@@H]1Cc2c(O)cc(O)cc2O[C@@H]1c1cc(O)c(O)c(O)c1)c1cc(O)c(O)c(O)c1", "note": "[EGCG, epigallocatechin gallate]", "values": [
      {"measurement": "effect on the sedimentation pattern of hsp90", "result": "dramatically altered the sedimentation pattern of hsp90"}
    ]}
  ]
}
